Where “and” joins values, the source holds several entries; their conditions need not be identical. Equal values may be shown once.
Columns and labels:
EAE = assay: Experimental Allergic Encephalomyelitis (EAE) model of MS; format: in vivo, mice; settings: 10 mg/kg twice daily, oral gavage, 30 days
Description: EAE is an accepted animal model of autoimmune disorder (Tisch et al. Proc. Natl. Acad. Sci. USA (1994) 91:437-438). EAE was induced by injecting the encephalitogenic agent consisting of MSCH and commercial CFA containing Mycobacterium tuberculosis H37Ra to the foot-pads of the animals and pertussis toxin intravenously.
GA-DS in MSCH emulsion was injected in the four footpads. The other compounds were administered to the respective groups by oral gavage twice daily for 30 consecutive days starting from the day of induction until the termination of the study.
Scoring of EAE clinical signs was initiated from Day 10 post-EAE induction and was continued daily for 20 days. The clinical signs were recorded on observation cards according to a grading system described in the table below.
The number of dead or moribund animals in each group were summed.
The mortality rate was calculated as: [formula]
The mean maximal score (MMS) of each group was calculated as Σ maximal score of each mouse/number of mice in the group.
The percent inhibition was calculated as [formula]
The daily scores of each mouse in the test group was summed and the individual mean daily score (IMS) was calculated as IMS=daily score of mouse/observation period (days).
The mean group score (GMS) will be calculated as Σ IMS of each mouse/number of mice in the group.
The percent inhibition will be calculated as [formula]

PC-12 cells = assay: Effect on MPP+ treated PC-12 cells (LDH release); format: cell-based; settings: MPP+ 1000 μM for 48 hours, tested compound 10 μM added 30 min prior to MPP+
Description: Pheochromocytoma PC-12 cells (at a density of 200,000 cells/well) were cultured for 10 days with 50 ng/ml NGF on 6-well culture dishes coated with 200 ug/ml rat tail type I collagen (BD Biosciences, Bedford, Mass., USA). On the day of the experiment the morphological differentiation of the cells was very advanced (typical network formation). In order to initiate the neurotoxic insult, cells were treated with 1000 μM of 1-methyl-4-phenylpyrdinium (MPP+) iodide salt from RBI chemicals (Natick, Mass., USA) for 48 hours in the absence or presence of tested compounds, added to the culture 30 min. prior to MPP+ administration. […] At the cellular level, neuronal cell death is induced by several mechanisms including pathological concentrations of intracellular calcium and free oxygen radicals. Therefore the positive control in this experiment was nimodipine at the concentration of 10 μM (RBI chemicals, Natick, Mass., USA)(a potent L-type calcium channel blocker). At the end of the experiment cell death was measured by assessing Lactate dehydrogenase (LDH) activity in the medium. High medium LDH indicated increased neuronal death that promoted leakage of this cytoplasmic enzyme into the medium.
Measuring lactate dehydrogenase activity in the medium was performed using a Sigma Diagnostics LD-L reagent. LDH activity was spectrophotometrically monitored at 340 nm by following the rate of conversion of oxidized nicotinamide adenine dinucleotide (NAD^+) to the reduced form of (NADH). Total LDH of each culture (extracellular+intracellular) was obtained by measuring LDH in the medium after freezing and thawing of the cultures. Basal LDH release was measured in untreated cultures (no MPP+). The neurotoxic effect was calculated according to the formula: (LDHs−LDHb)/LDHt×100. (s=sample; b=basal; t=total). Each compound was tested in sixplicate.

C57bl mice = assay: Effect on MPP+ toxicity in mice (striatal dopamine and DOPAC); format: in vivo; settings: for DOPAC Pmol/mg tissue +/− S.E.M. / Dopamine Pmol/mg tissue +/− S.E.M.: 5 mg/kg oral in CMC
Description: MPP+ is a neuro-toxin and its injection into the brain causes depletion of striatal dopamine. Male C57bl mice, weighing 24-25 g were divided into 4 groups A-D receiving the following treatments:
A: Oral administration of 0.25% Carboxymethyl cellulose (CMC, 0.1 ml/mouse) and intracerebroventricular (ICV) injection of saline (10 μl/mouse).
B. Oral administration of 5 mg/kg 3a in 0.1 ml CMC, and ICV injection of 10 μl saline.
C. Oral administration of 0.1 ml CMC, and ICV injection of 30 μg MPP+ dissolved in 10 μl saline.
D. Oral administration of 5 mg/kg 3a in 0.1 ml CMC, and ICV injection of 30 μg MPP+ dissolved in 10 μl saline.
3a/CMC or CMC alone were orally administered 30 minutes before and 2 hours after ICV injection. The injection was done according to Haley T. J and McCormick W. G (Brit.J. Pharmacol., 1957, 12, 12) using ether anesthesia. Saline or MPP+/saline were injected during 1 second using a syringe that delivered the liquid at a rate of 0.6 ml/min. Two ICV injections were carried out with a 24 hour interval between them. Mice were killed six days after the last injection and striata taken for dopamine and DOPAC determinations. Each striatum was weighed, homogenized in 0.1M Perchloric acid (0.6 ml) containing 2 mM sodium metabisulfite and 0.3 mM EDTA. After centrifugation at 13000 g for 7 minutes, the supernatant was taken for catecholamine determination. Aliquotes of 20 μl were injected into the solvent stream of an HPLC apparatus equipped with a Microsorb column (packing 3 μm, 4.6 mm diameter, 12.5 cm long). The mobile phase was composed of NaH2PO4 100 mM, octan-1-sulphonic acid 1.5 mM, disodium ethylenediaminetetracetic acid 250 μM, methanol 2.3%, acetonitrile 4% in grade deionized water, at a flow rate of 1.0 ml min^−1. Dopamine and DOPAC were detected with an ESA Coulochem model 5014 detector (Bedford, Mass., USA). Column eluates were initially oxidized by an ESA guard cell (model 5020) at +300 mV, then reduced at +60 mV at detector 1 and measured at detector 2 at −250 mV.

[1] = with ICV MPP+ 30 μg (Group D), striatum six days after last injection
[2] = without MPP+, ICV saline (Group B), striatum

Structure (SMILES)	GMS % Inhibition (EAE) [%]	MMS % Inhibition (EAE) [%]	Mortality % Inhibition (EAE) [%]	Percent of total LDH release (mean ± S.E.M.) (PC-12 cells)	melting point [°C]	also measured
C#CCN(C)c1nc2ccc(OC(F)(F)F)cc2s1 [Compound 3, Methyl-prop-2-ynyl-(6-trifluoromethoxy-benzothiazol-2-yl)-amine]	87.5	73.5	100			
C#CCN(C)c1nc2ccc(OC(F)(F)F)cc2s1.Cl [Compound 3a, Methyl-prop-2-ynyl-(6-trifluoromethoxy-benzothiazol-2-yl)-amine.HCl salt]				10.9% and 10.9 ± 2.3%		Effect on MPP+ caused depletion in striatal concentrations of dopamine and DOPAC (C57bl mice; Group D, 5 mg/kg oral, MPP+ ICV): reduced this depletion; DOPAC Pmol/mg tissue +/− S.E.M. (C57bl mice; [1]): 3.7 +/− 0.2 Pmol/mg tissue; Dopamine Pmol/mg tissue +/− S.E.M. (C57bl mice; [1]): 66.0 +/− 3.4 Pmol/mg tissue; DOPAC Pmol/mg tissue +/− S.E.M. (C57bl mice; [2]): 4.8 +/− 0.4 Pmol/mg tissue; Dopamine Pmol/mg tissue +/− S.E.M. (C57bl mice; [2]): 78.2 +/− 4.3 Pmol/mg tissue
C#CCNc1nc2ccc(OC(F)(F)F)cc2s1 [Compound 4, Prop-2-ynyl-(6-trifluoromethoxy-benzothiazol-2-yl)-amine]					138 to 140	
C#CCNc1nc2ccc(OC(F)(F)F)cc2s1.Cl [Compound 4a, Prop-2-ynyl-(6-trifluoromethoxy-benzothiazol-2-yl)-amine.HCl salt]				25 ± 8.0%		
C#CC(C)N(C)c1nc2ccc(OC(F)(F)F)cc2s1 (stereo not drawn) [Compound 6, Methyl-(1-methyl-prop-2-ynyl)-(6-trifluoromethoxy-benzothiazol-2-yl)-amine]					42 to 43	
C#CCN(CC(=O)c1ccc(C)cc1)c1nc2ccc(OC(F)(F)F)cc2s1 [Compound 9, 2-[Prop-2-ynyl-(6-trifluoromethoxy-benzothiazole-2-yl)-amino]-1-p-tolyl-ethanone]	57.6	48.8	50			
C#CCN=c1sc2cc(OC(F)(F)F)ccc2n1C [Compound 10, (3-Methyl-6-trifluoromethoxy-3H-benzothiazol-2-ylidene)-prop-2-ynyl-amine]	37.5	34.1	40			
C#CCN=c1sc2cc(OC(F)(F)F)ccc2n1CC(=O)c1ccc(C)cc1 [Compound 13, 2-(2-Prop-2-ynylimino-6-trifluoromethoxy-benzothiazole-3-yl)-1-p-tolyl-ethanone]					98 to 100	
COCCOC(=O)C1=C(C)NC(C)=C(C(=O)OC(C)C)C1c1cccc([N+](=O)[O-])c1 (stereo not drawn) [Nimodipine, reference compound]				3.6 ± 0.4%		Percent of total LDH release (mean ± S.E.M.) (PC-12 cells; listed as nimodipine): 3.6%

— patent US20040176430A1, “Propargyl-trifluoromethoxy-amino-benzothiazole derivatives” (priority 2002, published 2004)
